The nature of data set [1]: Stability in human plasma. The conditions noted are these: human plasma (EDTA). Format: in vitro ADME. As for the experimental part: A stability test in plasma was performed as previously described. Blood was collected from healthy anonymous donors and EDTA was then used as an anticoagulant. The plasma was aliquoted and incubated with IM peptide for 1, 2, 3, 6, and 24 h at 37 °C, at a final concentration of 300 µM. The analyses were performed by HPLC applying the conditions specified above.
For calculations, peak areas were compared to a calibration curve calculated by LC solution Software (Shimadzu, Kyoto, Japan).

Data set [2] has as its system 46BR.1N fibroblasts. Briefly: LDH cytotoxicity assay. In kind it is cell-based, human. The following applies: 50–150 µg/mL, 48 h, serum-free medium; n=16 (Figure S5). The protocol:
(§1) Cell death was quantified by measurement of lactate dehydrogenase activity in cell culture supernatants (Takara, Japan, cat. No. MK401), following the manufacturer’s instructions. Cells were seeded into 96-well plates (BD, cat.no. 353872), at a density of 5000 cells per well, in medium (DMEM) supplemented with 10% FBS. After 24 h, the medium was changed to serum-free medium containing appropriate concentrations of IM peptide. After 48 h of stimulation supernatants were collected for LDH analysis. Cell death was normalized with respect to untreated control (without IM). Non-IM treated cells were used as negative control (0%) and Triton-X 100 (1%) was used as the positive control for maximum LDH release (maximum cytotoxicity, 100%). The assay was performed to IM in concentrations of 50–150 µg/mL.

Data set [3] has as its system HaCaT keratinocytes. Kind of data set: LDH cytotoxicity assay. The following applies: 50–150 µg/mL, 48 h, serum-free medium; n=16 (Figure S5). In kind it is cell-based, human. As for the experimental part:
as §1

Data set [4] concerns adipose-derived stem cells (ASCs). Kind of data set: LDH cytotoxicity assay. Format: cell-based, human. The following applies: 50–150 µg/mL, 48 h, serum-free medium; n=12 (Figure S5). The protocol:
as §1

The subject of data set [5] is dendritic cells (DC). Kind of data set: Dendritic cell activation in PBMCs, flow cytometry. The conditions noted are these: 0.1 and 1.0 µg/mL, 48 h, active phenotype CD11+, CD80+, CD83+. In kind it is cell-based, human. As for the experimental part: Immunological tests were conducted on human peripheral blood mononuclear cells, isolated from “buffy coats” using a ficoll density gradient (Histopaque, Sigma-Aldrich, St. Louis, MO, USA). Buffy coats for were obtained from blood of healthy anonymous donors of the Regional Center of Blood Donation and Blood Therapy in Gdansk, Poland. After washing in PBS, erythrocyte lysis, and cell counting (cell counter, Bio-Rad), the PBMCs were seeded onto a 24-well culture plate at a density of 10^6 cells/1 mL of RPMI 1640 (Penicillin/Streptomycin, 10% FBS) per well. After cell resting for 24 h, cells were stimulated with IM peptide (0.1 µg/mL and 1.0 µg/mL) for the next 48 h under appropriate conditions (37 °C, 5% CO2). The untreated cells were used as a negative control, whereas cells stimulated with LPS (1 µg/mL) and PHA (2.5 µg/mL) were a positive control. After incubation, the PBMCs were collected, washed with PBS, counted and prepared for flow cytometry analysis. 10^4 cells/100 µl were stained with monoclonal, fluorochrome-conjugated antibodies (anti-CD3, -CD4, -CD8, -CD16, -CD56, -CD25, -CD69, -CD71, -HLA-DR, -CD11c, -CD80, and -CD83) and incubated for 30 min in RT in the dark. Stained cells were analyzed using a flow cytometer (LSRFortessa, BD, USA). All data are presented as percentages due to the application of hospital diagnostic laboratory standards for immune cells analyses.

For data set [6], the system named is primary fibroblast cell cultures. Kind of data set: Transcript levels by qPCR. Format: cell-based, human. The following applies: 0.1 µg/mL, 48 h, 2^−ΔCt relative to Actb and Tbp (Figure 5). The protocol:
Cell stimulation was performed as previously described. Primary fibroblasts after the third passage and ASCs after the second passage were cultured in appropriate DMEM medium supplemented with 10% FBS for 24 h. Then, the medium was changed for DMEM with 5% FBS and 24-h incubation was performed. After another medium change for serum-free, cells were stimulated with IM peptide (0.1 µg/mL) for 48 h. Cell cultures deprived of FBS for 48 h were used as a control. After stimulation, the cells were trypsinized, collected, and centrifuged, and the pellet was kept frozen (−80 °C) for transcriptome analysis and transcript level analysis.
RNA was extracted using an RNeasy Mini kit (Qiagen, Cat. No. 74104, Hilden, Germany). RNA quality and concentrations were examined with a NanoDrop 2000 spectrophotometer. cDNA synthesis was performed in a reaction mixture containing 200 ng of RNA, 100 pmoles of oligo dT20, 4 µl of 5× reaction buffer (250 mM Tris-HCl, 375 mM KCl, 15 mM MgCl2, and 50 mM DTT), and 200 units of Maxima Reverse Transcriptase (ThermoScientific Bio. Cat. No. EP0742, Waltham, MA USA), at a final volume of 20 µl. PCR reactions were carried out on a LightCycler LC96 device (Roche, Basel, Switzerland), at a final volume of 10 µl containing 5 µl of FastStart Essential DNA Green Master (Roche, Cat. No. 06402712001, Basel, Switzerland), 1 µl of cDNA, and 0.25 µl each of forward and reverse primer (10 µM). The primer sequences are listed in Supplementary Table S4. The transcript levels were determined using the 2^−ΔCt method relative to Actb and Tbp.
(In general: Real-time PCR tracks product formation cycle by cycle.)

Here are results for one molecule from publication PMC7355430, “Imunofan—RDKVYR Peptide—Stimulates Skin Cell Proliferation and Promotes Tissue Repair” (Molecules, 2020).

Molecules are shown by their SMILES. Peptide text beside a SMILES is read from it.

`CC(C)[C@H](NC(=O)[C@H](CCCCN)NC(=O)[C@H](CC(=O)O)NC(=O)[C@@H](N)CCCNC(=N)N)C(=O)N[C@@H](Cc1ccc(O)cc1)C(=O)N[C@@H](CCCNC(=N)N)C(=O)O` [IM, H-Arg-Asp-Lys-Val-Tyr-Arg-OH] (H-RDKVYR-OH): the “signal of the IM peptide in plasma after 1 h” value in data set [1] (300 µM, 37 °C, 1 h, albumins removed with ethanol and centrifugation, HPLC C18, PDA, n=3 (Figure S1)) was “no longer seen”. For the same molecule, the “signal of the IM peptide in plasma at time point 0 h” value in data set [1] (mixture without incubation, whole sample preparation (ethanol, centrifugation), HPLC (Figure S2)) is listed as “barely any signal of peptide”. For the same molecule, the “cytotoxicity (LDH release)” value in data set [2], in data set [3] and in data set [4] was “not cytotoxic” each time. The “activation of dendritic cells” value in data set [5] is “not activated”. The “transcriptional response of POU5F1” value in data set [6] (fibroblasts from all three donors) was “very strong induction”. Also, in data set [6] (primary fibroblasts), the “transcriptional response of TET1” value is reported as “high activation”. In addition, in data set [6] (primary fibroblasts), the “transcriptional response of TET3” value is given as “high activation”.
